Source: patent publication EP4644389A1, “PRMT5-MTA INHIBITOR” (Suzhou Puhe Biopharma Co., Ltd., priority 2022, dated 2024)
Where two headings read alike, the source gives them in different places.

How the values were obtained:
[1] = system: HCT116-MTAPwt; assay: 2D anti-proliferation assay (CTG luminescence), wild-type HCT116 cells; type: cell-based; settings: Homo sapiens, HCT-116, 7-10 days incubation
Procedure: By testing the activity of both of them, the inhibitory effect and selectivity of the molecules of the present invention for PRMT5 at the cellular level were shown.
(§1) HCT116 wild-type and MTAP-deficient cells were cultured in MCCOYS 5A medium containing 10% FBS and 1% penicillin-streptomycin and incubated in a 37°C, 5% CO2 incubator. A 40 µL cell suspension was added to each well of a 384-well microplate. Using Echo, 40 nL of the compound at different concentrations were added to each well, followed by incubation in a 37°C, 5% CO2 incubator for 7-10 days. 40 µL of CTG solution (Promega, Cat No. G7573) was added to each well and incubated away from light in a 37°C, 5% CO2 incubator for 30 minutes. Luminescence was measured using an Envision multimode plate reader (Perkin Elmer, Catalog No. Envision 2104). The luminescence signal was proportional to the ATP content in the system, and the ATP content directly reflected the number of viable cells in the system.
ICso value calculation: [formula] • X: Log value of compound concentration • Y: Inhibition rate (%) Table 1: 2D Anti-proliferation Effects of Compounds on HTC116-MTAP del and Wild-type Colorectal Cancer HCT-116 Cell Lines.

[2] = system: HCT116-MTAPdel; assay: 2D anti-proliferation assay (CTG luminescence), MTAP-deficient HCT116 cells; type: cell-based; settings: for IC50: Homo sapiens; for HCT116 WT/MTAPdel Selectivity: ratio of IC50 HCT116 WT / MTAPdel
Procedure: as §1

[3] = Liver microsomal stability, human; type: in vitro ADME; settings: human liver microsomes 0.5 mg/mL, compound 1 µM, NADPH 1 mM, 60 minutes
Procedure: Microsomal stability experiment of the compound. The details are as follows: A microsomal stability test was conducted on the compounds of the present invention. The test compounds were co-incubated with liver microsomes from different species, with or without the addition of NADPH. In the test system, the final concentration of the test compound was 1 µM, the final concentration of NADPH was 1 mM, and the final concentration of liver microsomes was 0.5 mg/mL.

[4] = Caco-2 membrane permeability assay; type: in vitro ADME; settings: human
Procedure: Evaluation of membrane permeability of the molecules of the present invention. Samples will be analyzed using LC-MS to estimate the apparent permeability coefficient (Papp) of the compound in Caco-2 monolayer cells, wherein the pH of the apical chamber is 6.5, and the pH of the basolateral chamber is 7.4. The P-gp efflux transporter, BCRP, and MRP2 inhibitors (50 µM quinidine, 30 µM benzbromarone, and 20 µM sulfasalazine) can block the active efflux transport of the compound. The data will be used for calculating apparent permeability (Papp). Papp = (VA×⌊drug⌋acceptor)/(Area×Time×⌊drug⌋initial,donor) [formula] wherein, VA is the volume of the receptor well (unit: mL), area is the membrane surface area (for Transwell-96 well permeable support, it is 0.143 cm^2), and time is the total transport time (unit: seconds). Efflux Ratio = Papp (B−A)/Papp (A−B) [formula]

[5] = HCT-116, HCT116 MTAP-deficient cells, 7-10 days incubation, CTG, read-out: HCT116-MTAPdel/IC50/nM
[6] = Caco-2, apical pH 6.5, basolateral pH 7.4
[7] = HCT-116, read-out: HCT116-MTAPdel/IC50/nM

Compound: Cc1c(CO)c(N)nc2cc(F)c(C(=O)N3C(C)COCC3c3ccc(-c4cncc(F)c4)cn3)cc12 (racemic) [Compound A3]
- IC50 [1]: 1450 nM
- IC50 [2, 5]: 5 nM
- HCT116 WT/MTAPdel Selectivity [2]: 291

Compound: Cc1c(CO)c(N)nc2cc(F)c(C(=O)N3C(C)COCC3c3ccc(-c4cncc(Cl)c4)cn3)cc12 (racemic) [Compound A4]
- IC50 [1]: 1140 nM
- IC50 [2, 5]: 7 nM
- HCT116 WT/MTAPdel Selectivity [2]: 164

Compound: Cc1c(CO)c(N)nc2cc(F)c(C(=O)N3C(C)COCC3c3ccc(OC(F)(F)F)cc3)cc12 (racemic) [Compound A5]
- IC50 [1]: 1360 nM
- IC50 [2, 5]: 18 nM
- HCT116 WT/MTAPdel Selectivity [2]: 75

Compound: Cc1c(CO)c(N)nc2cc(F)c(C(=O)N3C(C)COCC3c3ccc(C(F)(F)F)cc3)cc12 (racemic) [Compound A6]
- IC50 [1]: 1020 nM
- IC50 [2, 5]: 7 nM
- HCT116 WT/MTAPdel Selectivity [2]: 145

Compound: Cc1c(CO)c(N)nc2cc(F)c(C(=O)N3CC(C)CCC3c3ccc4scnc4c3)cc12 (racemic) [Compound A7]
- IC50 [1]: 3880 nM
- IC50 [2, 5]: 88 nM
- HCT116 WT/MTAPdel Selectivity [2]: 44

Compound: Cc1c(CO)c(N)nc2cc(F)c(C(=O)N3CC(C)CCC3c3ccc4ncsc4c3)cc12 (racemic) [Compound A8]
- IC50 [1]: 2000 nM
- IC50 [2, 5]: 150 nM
- HCT116 WT/MTAPdel Selectivity [2]: 13

Compound: Cc1c(CO)c(N)nc2cc(F)c(C(=O)N(C)C3COCc4nc(C(F)(F)F)ccc43)cc12 (racemic) [Compound A10]
- CLint scaled at 1 µM [3]: 11.1 mL/min/kg
- efflux ratio ([4]; Caco-2, Efflux Ratio = Papp (B-A)/Papp (A-B)): 3.8
- Papp A→B [4, 6]: 8.1 ×10⁻⁶ cm/s
- Papp B→A [4, 6]: 31 ×10⁻⁶ cm/s
- IC50 [1]: > 10000 nM
- IC50 [2, 5]: 18 nM
- HCT116 WT/MTAPdel Selectivity [2]: >556

Compound: Cc1c(CO)c(N)nc2cc(F)c(C(=O)N(C)[C@H]3COCc4nc(-c5cncc(Cl)c5)ccc43)cc12 (racemic) [Compound A11]
- IC50 [1]: 4380 nM
- IC50 [2, 5]: 26 nM
- HCT116 WT/MTAPdel Selectivity [2]: 168

Compound: Cc1c(CO)c(N)nc2cc(F)c(C(=O)N(C)[C@H]3COCc4nc(-c5cncc(F)c5)ccc43)cc12 (racemic) [Compound A12]
- IC50 [1]: 3250 nM
- IC50 [2, 5]: 36 nM
- HCT116 WT/MTAPdel Selectivity [2]: 90

Compound: Cc1c(CO)c(N)nc2cc(F)c(C(=O)N(C)[C@H]3COCc4nc(-c5cncc(C(F)(F)F)c5)ccc43)cc12 (racemic) [Compound A13]
- IC50 [1]: 3750 nM
- IC50 [2, 5]: 32 nM
- HCT116 WT/MTAPdel Selectivity [2]: 117

Compound: CN(C(=O)c1ccc2nc(N)c(C3CC3)cc2c1)C1COc2cc(C(F)(F)F)ccc21 (racemic) [Compound H1]
- IC50 [1]: > 10000 nM
- IC50 [2, 5]: 4250 nM
- HCT116 WT/MTAPdel Selectivity [2]: >2

Compound: CN(C(=O)c1ccc2nc(N)c(C3CC3)cc2c1)C1COc2cc(-c3cnn(C)c3)ccc21 (racemic) [Compound H4]
- IC50 [1]: > 10000 nM
- IC50 [2, 5]: 4350 nM
- HCT116 WT/MTAPdel Selectivity [2]: >3

Compound: Cc1cc2cc(C(=O)N(Cc3ccc(C(F)(F)F)cn3)[C@H](C)c3ncccn3)ccc2nc1N [AM9747, reference compound]
- IC50 [1]: 237 nM
- IC50 [2, 7]: 7 nM

Compound: Cc1c(CO)c(N)nc2cc(Cl)c(C(=O)N3[C@@H](C)COC[C@H]3c3ccc(C(F)(F)F)cn3)cc12 [Compound A2a]
- IC50 [1]: > 10000 nM
- IC50 [2, 5]: 3030 nM
- HCT116 WT/MTAPdel Selectivity [2]: >3

Compound: Cc1c(CO)c(N)nc2cc(Cl)c(C(=O)N3[C@H](C)COC[C@@H]3c3ccc(C(F)(F)F)cn3)cc12 [Compound A2b]
- IC50 [1]: 398 nM
- IC50 [2, 5]: 4 nM
- HCT116 WT/MTAPdel Selectivity [2]: 100

Compound: CN(C(=O)c1ccc2nc(N)c(C3CC3)cc2c1)C1COc2cc(OC(F)(F)F)ccc21 (centres unmarked) [Compound H2]
- IC50 [1]: > 10000 nM
- IC50 [2, 5]: 6290 nM
- HCT116 WT/MTAPdel Selectivity [2]: >1

Compound: CN(C(=O)c1ccc2nc(N)c(C3CC3)cc2c1)C1COCc2nc(C(F)(F)F)ccc21 (centres unmarked) [Compound H3]
- IC50 [1]: > 10000 nM
- IC50 [2, 5]: 926 nM
- HCT116 WT/MTAPdel Selectivity [2]: >11

Compound: CN(C(=O)c1ccc2nc(N)c(C3CC3)cc2c1)C1COc2cc(-c3cnn(C(F)(F)F)c3)ccc21 (centres unmarked) [Compound H5]
- IC50 [1]: 8020 nM
- IC50 [2, 5]: 2960 nM
- HCT116 WT/MTAPdel Selectivity [2]: 3

Compound: Cc1c(C2CC2)c(N)nc2cc(F)c(C(=O)N(C)C3COCc4nc(C(F)(F)F)ccc43)cc12 (centres unmarked) [Compound H6]
- IC50 [1]: 532 nM
- IC50 [2, 5]: 33 nM
- HCT116 WT/MTAPdel Selectivity [2]: 16

Compound: Cc1c(C2CC2)c(N)nc2cc(Cl)c(C(=O)N(C)C3COCc4nc(C(F)(F)F)ccc43)cc12 (centres unmarked) [Compound H7]
- IC50 [1]: 1110 nM
- IC50 [2, 5]: 29 nM
- HCT116 WT/MTAPdel Selectivity [2]: 38

Compound: C[C@H]1COC[C@@H](c2ccc(C(F)(F)F)cn2)N1C(=O)c1cc2cc(C3CC3)c(N)nc2cc1F [Compound P2]
- IC50 [1]: > 10000 nM
- IC50 [2, 5]: 93 nM
- HCT116 WT/MTAPdel Selectivity [2]: >108

Compound: Nc1nc2cc(F)c(C(=O)N3CCOCC3c3ccc(C(F)(F)F)cn3)cc2cc1C1CC1 (centres unmarked) [Compound P3]
- IC50 [1]: > 10000 nM
- IC50 [2, 5]: 2870 nM
- HCT116 WT/MTAPdel Selectivity [2]: >4

Compound: C[C@H]1COC[C@@H](c2ccc(C(F)(F)F)cn2)N1C(=O)c1ccc2nc(N)c(C3CC3)cc2c1 [Compound P4]
- IC50 [1]: > 10000 nM
- IC50 [2, 5]: 790 nM
- HCT116 WT/MTAPdel Selectivity [2]: >13

Compound: CC(C)N1CCN(c2ccc([C@@H]3COC[C@H](C)N3C(=O)c3cc4cc(C5CC5)c(N)nc4cc3F)cc2)CC1 [Compound P5]
- IC50 [1]: > 10000 nM
- IC50 [2, 5]: 612 nM
- HCT116 WT/MTAPdel Selectivity [2]: >16

Compound: C[C@H]1COC[C@@H](c2ccc(OC(F)(F)F)cc2)N1C(=O)c1cc2cc(C3CC3)c(N)nc2cc1Cl [Compound P6]
- IC50 [2, 5]: 156 nM

Compound: Cc1c(C2CC2)c(N)nc2cc(Cl)c(C(=O)N3[C@H](C)COC[C@@H]3c3ccc(C(F)(F)F)cn3)cc12 [Compound P7a]
- IC50 [1]: 1640 nM
- IC50 [2, 5]: 230 nM
- HCT116 WT/MTAPdel Selectivity [2]: 7

Compound: Cc1c(C2CC2)c(N)nc2cc(Cl)c(C(=O)N3[C@@H](C)COC[C@H]3c3ccc(C(F)(F)F)cn3)cc12 [Compound P7b]
- IC50 [1]: 3800 nM
- IC50 [2, 5]: 2540 nM
- HCT116 WT/MTAPdel Selectivity [2]: 2

Compound: C[C@H]1COC[C@@H](c2ccc(OC(F)F)nn2)N1C(=O)c1cc2cc(C3CC3)c(N)nc2cc1F [Compound P8]
- IC50 [1]: > 10000 nM
- IC50 [2, 5]: 96 nM
- HCT116 WT/MTAPdel Selectivity [2]: >104

Compound: Cc1c(C2CC2)c(N)nc2cc(F)c(C(=O)N3[C@@H](C)COC[C@H]3c3ccc(-c4cncc(Cl)c4)cn3)cc12 [Compound P9]
- IC50 [1]: 936 nM
- IC50 [2, 5]: 16 nM
- HCT116 WT/MTAPdel Selectivity [2]: 59

Compound: Cc1c(C2CC2)c(N)nc2cc(F)c(C(=O)N3[C@@H](C)COC[C@H]3c3ccc(-c4cncc(C(F)(F)F)c4)cn3)cc12 [Compound P10]
- IC50 [1]: 1860 nM
- IC50 [2, 5]: 34 nM
- HCT116 WT/MTAPdel Selectivity [2]: 55

Compound: CC(=O)N1CCC(Nc2cc(C(=O)NC[C@H](O)CN3CCc4ccccc4C3)ncn2)CC1 [GSK3326595, reference compound]
- IC50 [1]: 72 nM
- IC50 [2, 5]: 17 nM
- HCT116 WT/MTAPdel Selectivity [2]: 4

Compound: Cc1cc(NC(=O)C(=O)N2C[C@@H](C)CC[C@@H]2c2ccc3scnc3c2)cnc1N [TNG908, reference compound]
- IC50 [1]: 1230 nM
- selectivity ([2]; HCT116 WT vs MTAP-deleted): 23 fold
- IC50 [2, 7]: 54 nM
- HCT116 WT/MTAPdel Selectivity [2]: 23
